Laboratory results: PubChem BioAssay AID2305 (GlaxoSmithKline (GSK), 2010)
Where “and” joins values, the source holds several entries; their conditions need not be identical. Equal entries are not always repeated.

Tested on: P. falciparum 3D7 growth, pLDH absorbance
Assay: P. falciparum 3D7 growth inhibition, dose response, strain 3D7 (AID 2305)

| Compound | IC50 |
| --- | --- |
| CC(=O)N(Cc1cccc(-c2cccc(CNCc3ccc4c(c3)OCO4)c2)c1)C1CCN(Cc2ccccc2)CC1 | 0.84 µM |
| CC(=O)Nc1ccc(CN(Cc2ccc(OC(C)(C)C)cc2)Cc2ccc3c(c2)OCCO3)cc1 | 0.93 µM |
| Cn1cnnc1Sc1ccc(CN2CCOc3ccc(C4=CCCCC4)cc3C2)o1 | 0.85 µM |
| O[C@@H](c1ccc2ccccc2c1)[C@@H]1CN(CCc2ccccc2)CC[C@@]1(O)c1ccccc1 | 0.55 µM |
| NC(N)=Nc1nc(-c2cccc(NC(=O)NCc3cccc4ccccc34)c2)cs1 | 0.84 µM |
| N#Cc1ccc(S(=O)(=O)N2C(c3cccc([N+](=O)[O-])c3)C(C(=O)c3ccccc3)N(C3CCCCC3)C2c2cccc([N+](=O)[O-])c2)cc1 (centres undefined) | 1.08 µM |
| COc1ccc(/C=C/C(=O)N2CCc3cc4nccc(N5CCN6CCC[C@H]6C5)c4cc32)cc1 | 0.64 µM |
| O=C(N[C@H]1CCN(Cc2ccc(OC3CCN(Cc4ccccc4)CC3)cc2)C1)c1ccc(Cl)c(Cl)c1 | 0.73 µM |
| O=C(Nc1ccc(-c2ccccc2)cc1)Nc1cccc(Cn2cnc(N3CCCNCC3)cc2=O)c1 | 1.08 µM |
| CCC1(c2ccccc2)N=C(N)N(CCCc2ccccc2)C1=O (centres undefined) | 0.89 µM |
| CCNC(=O)N1CCN(c2nc(-c3ccccc3)nc(COC)c2Cc2ccc(C)cc2)CC1 | 0.99 µM |
| Cc1ccc2[nH]c3ccccc3c(=O)c2c1 | 0.86 µM |
| CC(=O)Nc1nc(C(=O)Nc2ccc(-c3ccc(-c4nc5c(C)cccc5[nH]4)cc3)cc2)cs1 | 0.18 µM |
| COc1ccc2nccc(C(=O)NC3CCC(CCN4CCc5cc(C#N)ccc5C4)CC3)c2c1 (centres undefined) | 1.16 µM |
| CC[C@H]1CN2CC[C@H]1C[C@H]2[C@H](O)c1cc(N2CCCC(C(=O)N(CC)CC)C2)nc2ccc(OC)cc12 (some centres undefined) | 0.07 µM |
| CNCCCN(C)C(=O)Oc1c(Br)c(C)nc(C)c1-c1ccc(Oc2ccc(OC(F)(F)F)cc2)cc1 | 0.39 µM |
| COc1ccccc1-c1cc(C(=O)N2CCN(S(=O)(=O)c3ccc(C)cc3)CC2)[nH]n1 | 1.16 µM |
| COc1ccc(C2CCN(CCN3CCC(NC(=O)c4cccc(-c5ccncc5)c4)CC3)CC2)c(OC)c1 | 0.8 µM |
| O=C(NC1CCN(c2ccnc3cc(Cl)ccc23)C1)c1ccc(C(F)(F)F)cc1 (centres undefined) | 0.14 µM |
| CN(C)c1ccc(C2c3nc[nH]c3CCN2C(=O)Nc2cccc([N+](=O)[O-])c2)cc1 (centres undefined) | 0.97 µM |
| Cc1cccc2[nH]c(-c3ccc(-c4cccc(C(=O)N5CCCCC5C(C)O)c4)s3)nc12 (centres undefined) | 0.64 µM |
| Cc1nc(N=C(N)N)nc2ccc(C(C)(C)C)cc12 | 0.75 µM |
| O=C1NC(=S)NC1=CC=Cc1ccc([N+](=O)[O-])o1 | 1.07 µM |
| C(=C(c1cccs1)c1cccs1)c1ccc(CNC2CCN(Cc3ccccc3)CC2)cc1 | 0.16 µM |

| Compound | IC50 |
| --- | --- |
| C[C@H](NC(=O)[C@H](CCCCNC(=O)OC(C)(C)C)NC(=O)OC(C)(C)c1ccc(-c2ccccc2)cc1)C(=O)OCc1ccccc1 | 0.18 µM |
| Cc1cc(Nc2c(C(N)=O)cnc3cc(-c4ccoc4)ccc23)ccc1N1CCN(C)CC1 | 0.8 µM |
| O=C(NCc1cccc(F)c1)c1ccc(O)c(-c2cc(Cl)cc(Cl)c2)c1 | 0.56 µM |
| COc1cc2c(cc1OC)CN(CCc1ccc(NC(=O)c3cc4cc(Cl)ccc4[nH]3)cc1)CC2 | 1.02 µM |
| COc1cc(-c2ccc(-c3cnc(N)nc3OC)[nH]2)cc(OC)c1OC | 0.73 µM |
| CCOc1cc(CC)ccc1C1CCN(CCN2CCC(NC(=O)c3ccc(-c4ccc(C(C)=O)cc4)cc3)CC2)CC1 | 0.23 µM |
| COc1ccc(CCc2ccc(-c3c(C)[nH]c(C)c(Cl)c3=O)cc2)cc1 | 0.02 µM |
| CO/C(=C\C=C\c1cc2cc(Cl)ccc2[nH]1)C(=O)NCCCN1CCN(c2cc(Cl)ccc2OC)CC1 | 0.88 µM |
| O=C(/C=C/c1ccsc1)N1CCC(CCN2CCC(c3c[nH]c4ccccc34)CC2)CC1 | 0.91 µM |
| O=C(Nc1ccc(Cl)c(C(F)(F)F)c1)c1ccc(C(=O)Nc2ccc(Cl)c(C(F)(F)F)c2)cc1 | 1 µM |
| CC(=O)c1ccc(S(=O)(=O)N2CCC(C(=O)Nc3ccccc3N3CCCC3)CC2)cc1 | 0.83 µM |
| Cc1nn(CC(O)Cn2c3ccc(Br)cc3c3cc(Br)ccc32)c(C)c1Br (centres undefined) | 0.71 µM |
| CC1(C)C(=O)Nc2ccccc2N1C(=O)CN1CCN(c2ccccc2O)CC1 | 1.07 µM |
| CC(=O)N[C@H](C(=O)Nc1ccc(-c2ccc(-c3nc4ccc(C(F)(F)F)cc4[nH]3)cc2)cc1)C(C)C | 0.89 µM |
| O=C(Nc1ccc(OC2CCN(Cc3ccccc3)C2)c(Cl)c1)c1ccsc1 (centres undefined) | 0.73 µM |
| CCCn1c(SCC(=O)Nc2cc(Cl)ccc2Cl)n[nH]c1=O | 1 µM |
| CCCN(CCC)CCOC(=O)C(OCC)(c1ccccc1)c1ccccc1 | 0.87 µM |
| O=C(NCCCCN1CCC(c2ccc3c(c2OCCO)CCCC3)CC1)c1ccc(-c2ccc(C(F)(F)F)cc2)cc1 | 0.86 µM |
| CCC(C)OC(=O)C1=C(C)NC2=C(C(=O)CC(c3ccc(OC)c(OC)c3)C2)C1c1ccc(C)o1 (centres undefined) | 0.9 µM |
| Cc1[nH]c(C)c(-c2ccc(C(=O)c3ccccc3)cc2)c(=O)c1Br | 0.78 µM |
| COC(=O)/C=C/c1ccc(CC(C)NCC(O)c2cccc(C(F)(F)F)c2)cc1 (centres undefined) | 0.77 µM |
| O=C(NCc1ccccc1)c1nn(CCCN2CCC(N3CCCC3)CC2)cc1-c1ccc(Cl)c(Cl)c1 | 0.67 µM |
| CCCNCc1ccc(-c2ccc(CN(CC3CCCO3)C(=O)COc3ccccc3Cl)cc2)nc1 (centres undefined) | 1.18 µM |
| Cc1cc(NCCC(=O)Nc2ccccc2)nc(NCCc2ccccc2)n1 | 0.85 µM |

| Compound | IC50 |
| --- | --- |
| CC(C)(C)c1ccc(CN2CCCCC(NC(=O)c3cc(-c4ccccc4Cl)cs3)C2)cc1 (centres undefined) | 1.12 µM |
| O=C(/C=C/c1ccccc1Cl)Nc1ccc(Br)c(OCCN2CCCCC2)c1 | 0.17 µM |
| Cc1cc(NN=Cc2ccc(Cl)cc2)c2ccc(F)cc2n1 | 0.76 µM |
| CC[C@H]1CN2CC[C@@H]1C[C@H]2[C@H](O)c1cc(N2CCSCC2)nc2ccc(OC)cc12 | 0.2 µM |
| C=CC[C@H](C[C@H](O)[C@H](Cc1ccccc1)NC(=O)c1ccc(-n2cccn2)cc1)C(=O)NC1CCCCC1 | 0.81 µM |
| O=C(Nc1ccc(-c2ccc(-c3nc4ccccc4[nH]3)s2)cc1)Nc1ccsc1 | 0.28 µM |
| O=C(Nc1cccc(C(F)(F)F)c1)c1cccc2[nH]c(C(F)(F)F)nc12 | 0.64 µM |
| COc1cc2nc(N3CCC(CNC(=O)c4ccc(-c5ccc(C(=O)N(C)C)cc5OCCO)cc4)CC3)nc(N)c2cc1OC | 0.64 µM |
| CCOC(=O)c1c(CN2CCN(C)CC2)n(Cc2ccccc2)c2cc(Br)c(O)cc12 | 0.59 µM |
| COc1cc2nc(Nc3ccc(C)cc3)nc(Nc3ccc(C)cc3)c2cc1OC | 0.14 µM |
| Cc1noc(C)c1-c1cccc(CNCc2cccc(-c3cccc(-c4nc5c(C)cccc5[nH]4)c3)c2)c1 | 0.37 µM |
| C[C@@H](Nc1nc(NCc2ccccc2)c2sccc2n1)c1ccccc1 | 0.92 µM |
| COc1ccc(NC(=O)c2csc(-c3cc(NC(=O)c4ccnc(N5CCCC5)c4)ccc3C)c2)cc1N1CCN(C)CC1 | 0.66 µM |
| COc1ccc2nccc(NN=Cc3cccc(F)c3)c2c1 | 0.75 µM |
| COc1cccc(NC(=O)Nc2cc(C)nc3ccccc23)c1 | 0.72 µM |
| COc1ccc2nc3cc(Cl)ccc3c(Nc3ccc(O)c(CN4CC5CCC(CC5)C4)c3)c2c1 | 0.17 µM |
| COc1ccc2c(-c3ccccc3)noc2c1 | 0.24 µM |
| O=C(NCc1ccc(F)cc1)c1cnc(N2CCN(c3ccncc3)CC2)c(Cl)c1 | 1.39 µM |
| CNCCNCc1cccc(-c2ccc(-c3nc4ccccc4[nH]3)s2)c1 | 0.83 µM |
| COc1cccc(NC(=O)N2CCOC(CCN3CCC4(CCc5ccccc54)CC3)(c3ccc(Cl)c(Cl)c3)C2)c1 (centres undefined) | 1.01 µM |
| O=C(Nc1ccc(OC2CCN(Cc3ccsc3)C2)c(Cl)c1)c1ccc(F)cc1 (centres undefined) | 0.94 µM |
| Cc1ccc2c(c1)NC[C@@]21CCN(C[C@@H](O)C2CCN(c3cc(C#N)ccn3)CC2)C[C@@H]1C | 0.61 µM |
| COc1cc(OC)c(NC(=O)C2c3ccccc3C(=O)N(CC(C)C)C2c2cccs2)cc1Cl (centres undefined) | 0.05 µM |
| CCN1CCC(N(Cc2ccc(-c3ccc(C(F)(F)F)cc3)cc2)C(=O)Cn2c(CCc3cccc(F)c3F)cc(=O)c3c2CCCC3)CC1 | 0.76 µM |

| Compound | IC50 |
| --- | --- |
| O=C(N[C@@H](CC1CCCCC1)C(=O)NC1CCCCCC1)c1ccc(O)c(-c2ccc(Cl)c(Cl)c2)c1 | 0.1 µM |
| CO/C(=C\C=C\c1cc2cc(Cl)c(Cl)cc2[nH]1)C(=O)NCCCNCCN(C)c1ccccc1 | 0.78 µM |
| CCOC(=O)C(C)(C)Oc1ccc(CN(Cc2ccc(CC(C)C)cc2)C(=O)Nc2ccc(F)cc2F)c(OC)c1 | 0.24 µM |
| CCc1cn2c3c(cc(C(=O)N[C@@H](Cc4ccccc4)[C@H](O)CNC4CC4)cc13)N(CC)S(=O)(=O)CC2 | 0.11 µM |
| CCN1CCN(C(=O)NC(C(=O)N(C)Cc2ccc(-c3ccc(C(F)(F)F)cc3)cc2)c2cccs2)C(=O)C1=O (centres undefined) | 0.36 µM |
| N#Cc1ccc(N(CCOc2ccc(Cl)c(Cl)c2)Cc2ccccc2C(F)(F)F)cc1C(F)(F)F | 1.11 µM |
| Cn1c(-c2ccccc2)cc2c3c(=O)cc(C(F)(F)F)[nH]c3ccc21 | 0.85 µM |
| Cc1c(C(=O)Nc2cc(Sc3ccc(F)cc3)cc([N+](=O)[O-])c2)sc2ncn(Cc3cccc(F)c3)c(=O)c12 | 0.72 µM |
| CC(Cc1ccc(OCCOc2ccccc2)cc1)NCC(O)c1cccc(Cl)c1 (centres undefined) | 1.04 µM |
| COc1ccc(C(=O)N[C@@H](CC(C)C)C(=O)NC2CC[C@@H](C)N(C(=O)Nc3ccc(Cl)cc3)CC2=O)cc1OCCN1CCOCC1 (some centres undefined) | 0.15 µM |
| COc1cccc(CNC(=O)c2ccnc(-c3ccc(CNCCOc4ccccc4)cc3)c2)c1 | 1.2 µM |
| COc1cc2nc(NCCn3ccnc3C)nc(NCCc3ccccc3)c2cc1OC | 0.73 µM |
| CN1CCCN(Cc2ccc(-c3cccc(NC(=O)c4cccc(F)c4)c3)cc2)CC1 | 0.98 µM |
| CC(C)COc1ccc(Cl)cc1Cc1ccc(-c2nc3ccc(Cl)cc3[nH]2)o1 | 0.93 µM |
| COc1ccc(CNC2CCN(C)CC2)cc1-c1ccc(S(=O)(=O)NCc2ccccc2)c(F)c1 | 0.8 µM |
| COc1cc2c(cc1OC)CC(NCc1ccc(-c3ccc4nc[nH]c4c3)cc1)C2 | 0.85 µM |
| Fc1ccc2nc(-c3cccc(-c4cccc(CNCCN5CCNCC5)c4)c3)[nH]c2c1 | 0.84 µM |
| N=C(N)c1ccc(C=CC(=O)NCC(O)CNC(=O)C=Cc2ccc(C(=N)N)cc2)cc1 (centres undefined) | 0.03 µM |
| FC(F)(F)c1ccc(NC(=S)NC2CCC(CN3CCC(c4c[nH]c5ccccc45)CC3)CC2)cc1 (centres undefined) | 0.73 µM and 0.39 µM |
| CCCCCCCSc1ccc(CC(C)NCC(O)c2cccc(Cl)c2)cc1 (centres undefined) | 0.18 µM |
| Cc1cccc(CNc2nc(C)cc(N[C@@H](CC(C)C)C(=O)NCc3cccc(F)c3)n2)c1 | 1.18 µM |
| Nc1cc(C=Cc2ccc([N+](=O)[O-])o2)nc2ccccc12 | 0.37 µM |
